# Conditions: not given
row,SMILES,logP
1,COCCN(CCOC)C(=O)COC(=O)c1ccccc1,1.28
2,CCN(CC)C(=O)C(C)OC(=O)c1ccccc1 (stereo unspecified),2.3
3,CCCCCCN(CCCCCC)C(=O)COC(=O)c1ccccc1,6.53
4,CCNC(=O)COC(=O)c1ccccc1,1.28
5,CCCCCCNC(=O)COC(=O)c1ccccc1,2.81
6,CC(=O)N(C)CCOC(=O)c1ccccc1,1.24
7,O=C(OCC(=O)N1CCCCC1)c1ccccc1,1.95
8,CC(C)NC(=O)COC(=O)c1ccccc1,1.73
9,O=C(COC(=O)c1ccccc1)NC(CO)(CO)CO,0.25
10,CCCNC(=O)COC(=O)c1ccccc1,1.88
11,CCC1CCCCN1C(=O)COC(=O)c1ccccc1 (stereo unspecified),2.62
12,CC(=O)N(C)C(=O)COC(=O)c1ccccc1,1.58
13,CC(=O)NC(=O)COC(=O)c1ccccc1,1.24
14,NC(=O)C1CCCN1C(=O)COC(=O)c1ccccc1 (stereo unspecified),0.2
15,O=C(OCC(=O)N1CCOCC1)c1ccccc1,0.9
16,CCCCCCN(C)C(=O)COC(=O)c1ccccc1,2.99
17,NC(=O)COC(=O)c1ccccc1,0.69
18,CC(C)(C)NC(=O)COC(=O)c1ccccc1,2.26
19,CNC(=O)COC(=O)c1ccccc1,0.99
20,CC(NC(=O)COC(=O)c1ccccc1)C(N)=O (stereo unspecified),0.42
21,CCCCNC(=O)COC(=O)c1ccccc1,2.36
22,O=C(OCC(=O)N1CCC(O)CC1)c1ccccc1,0.63
23,C=CCN(CC=C)C(=O)COC(=O)c1ccccc1,2.34
24,CC(O)CN(CC(C)O)C(=O)COC(=O)c1ccccc1 (stereo unspecified),0.66

# Same assay, conditions: pH 2.0
row,SMILES,logD
1,O=C(OCC(=O)N1CCC1C(=O)O)c1ccccc1 (stereo unspecified),0.79
2,CN(CC(=O)O)C(=O)COC(=O)c1ccccc1,0.67
